Patent US11654096B2 (L'OREAL, priority 2017, dated 2023)
Values joined by “and” are separate entries in the source; they are usually repeats but may differ in a detail not shown here. Equal entries are not always repeated.

Key:
Assay type in all cases: cell-based
[1] = test system: normal human dermal fibroblasts (NHDFs); test: Neosynthesis of total GAGs by NHDFs, [3H]-glucosamine incorporation; conditions: for % Control / Mean (cpm) / [3H]-glucosamine (cpm): total GAGs, NHDFs; for [3H]-glucosamine (cpm): single replicates
Experimental: (§1) The effects of the compounds on the neosynthesis of total and sulfated glycosaminoglycans (GAGs) were studied on two cell models, normal human epidermal keratinocytes (NHEKs) and normal human dermal fibroblasts (NHDFs). The effects of these compounds were evaluated by measuring: • the incorporation of [3H]-glucosamine into the total GAGs neosynthesized by NHEKs and by NHDFs, • the incorporation of [35S]-sulfate into the sulfated GAGs neosynthesized by NHEKs and by NHDFs.
(§2) The fibroblasts were seeded into wells and cultured in culture medium for 24 hours. The medium was then replaced with culture medium containing or not containing (controt) the compounds to be tested or the reference (TGF-β at 10 ng/ml), then the cells were incubated for 72 hours with the addition of the [35S]-sulfate radioactive label (sulfated GAGs) or of the [3H]-glucosamine radioactive label (total GAGs) for the final 24 hours of incubation.
(§3) At the end of the incubation, the glycosaminoglycans were extracted from the cells with a chaotropic buffer. The GAGs were then purified by ion exchange chromatography: adsorption of the anionic molecules on Q-Sepharose beads and desorption of the molecules of low or medium anionic nature, with a suitable solution.
(§4) The radioactivity incorporated into the molecules left on the support (GAGs, predominantly) was measured by liquid scintillation.
(§5) All the experimental conditions were performed in n=3.
(§6) The inter-group comparisons were performed using Student's non-paired two-sided t-test. The statistical analyses can be interpreted if n≥5; however, for n<5, the data calculated are provided only by way of indication.

[2] = test system: normal human epidermal keratinocytes (NHEKs); test: Neosynthesis of total GAGs by NHEKs, [3H]-glucosamine incorporation; conditions: for % Control / Mean (cpm) / [3H]-glucosamine (cpm): total GAGs, NHEKs; for [3H]-glucosamine (cpm): single replicates
Experimental: as §1
(§7) The keratinocytes were seeded into wells and cultured in culture medium for 24 hours. The medium was then replaced with culture medium containing or not containing (control) the compounds to be tested or the reference (4-nitrophenyl β-D-xylopyranoside at 300 μM), then the cells were incubated for 72 hours with the addition of the [3H]-glucosamine radioactive label (total GAGs) or of the [35S]-sulfate radioactive label (sulfated GAGs) for the final 24 hours of incubation.
as §3, §4, §5, §6

[3] = test system: normal human dermal fibroblasts (NHDFs); test: Neosynthesis of sulfated GAGs by NHDFs, [35S]-sulfate incorporation; conditions: for % Control / Mean (cpm) / [35S]-Sulfate (cpm): sulfated GAGs, NHDFs; for [35S]-Sulfate (cpm): single replicates
Experimental: as §1, §2, §3, §4, §5, §6

[4] = test system: normal human epidermal keratinocytes (NHEKs); test: Neosynthesis of sulfated GAGs by NHEKs, [35S]-sulfate incorporation; conditions: for % Control / Mean (cpm) / [35S]-Sulfate (cpm): sulfated GAGs, NHEKs; for [35S]-Sulfate (cpm): single replicates
Experimental: as §1, §7, §3, §4, §5, §6

Oc1ccc(/C=C/c2cc(O)cc(O[C@@H]3OC[C@@H](O)[C@H](O)[C@H]3O)c2)cc1 [Compound 1a, 3-hydroxy-5-[(E)-2-(4-hydroxyphenyl)ethenyl]phenyl β-D-xylopyranoside]
% Control ([1]; campaign 2, 10 μM): 108% | Mean (cpm) ([1]; campaign 2, 10 μM): 1684 cpm | [3H]-glucosamine (cpm) ([1]; campaign 2, 10 μM): 1622 cpm and 1750 cpm and 1680 cpm | % Control ([1]; campaign 2, 100 μM): 90% | Mean (cpm) ([1]; campaign 2, 100 μM): 1408 cpm | [3H]-glucosamine (cpm) ([1]; campaign 2, 100 μM): 1422 cpm and 1331 cpm and 1470 cpm | % Control ([2]; campaign 1, 10 μM): 117% | Mean (cpm) ([2]; campaign 1, 10 μM): 15165 cpm | [3H]-glucosamine (cpm) ([2]; campaign 1, 10 μM): 14440 cpm and 15184 cpm and 15871 cpm | % Control ([2]; campaign 1, 100 μM): 235% | Mean (cpm) ([2]; campaign 1, 100 μM): 30380 cpm | [3H]-glucosamine (cpm) ([2]; campaign 1, 100 μM): 30079 cpm and 29149 cpm and 31911 cpm | % Control ([2]; campaign 2, 10 μM): 134% | Mean (cpm) ([2]; campaign 2, 10 μM): 11405 cpm | [3H]-glucosamine (cpm) ([2]; campaign 2, 10 μM): 10145 cpm and 11857 cpm and 12213 cpm | % Control ([2]; campaign 2, 100 μM): 199% | Mean (cpm) ([2]; campaign 2, 100 μM): 16980 cpm | [3H]-glucosamine (cpm) ([2]; campaign 2, 100 μM): 16745 cpm and 16574 cpm and 17621 cpm | % Control ([3]; campaign 1, 10 μM): 211% | Mean (cpm) ([3]; campaign 1, 10 μM): 3472 cpm | [35S]-Sulfate (cpm) ([3]; campaign 1, 10 μM): 3286 cpm and 3573 cpm and 3557 cpm | % Control ([3]; campaign 1, 100 μM): 537% | Mean (cpm) ([3]; campaign 1, 100 μM): 8844 cpm | [35S]-Sulfate (cpm) ([3]; campaign 1, 100 μM): 8753 cpm and 8534 cpm and 9244 cpm | % Control ([3]; campaign 2, 10 μM): 221% | Mean (cpm) ([3]; campaign 2, 10 μM): 1254 cpm | [35S]-Sulfate (cpm) ([3]; campaign 2, 10 μM): 1274 cpm and 1307 cpm and 1180 cpm | % Control ([3]; campaign 2, 100 μM): 411% | Mean (cpm) ([3]; campaign 2, 100 μM): 2328 cpm | [35S]-Sulfate (cpm) ([3]; campaign 2, 100 μM): 2237 cpm and 2369 cpm and 2379 cpm | % Control ([4]; campaign 1, 10 μM): 137% | Mean (cpm) ([4]; campaign 1, 10 μM): 9319 cpm | [35S]-Sulfate (cpm) ([4]; campaign 1, 10 μM): 9304 cpm and 9522 cpm and 9131 cpm | % Control ([4]; campaign 1, 100 μM): 839% | Mean (cpm) ([4]; campaign 1, 100 μM): 56923 cpm | [35S]-Sulfate (cpm) ([4]; campaign 1, 100 μM): 53801 cpm and 56728 cpm and 60239 cpm | % Control ([4]; campaign 2, 10 μM): 217% | Mean (cpm) ([4]; campaign 2, 10 μM): 11501 cpm | [35S]-Sulfate (cpm) ([4]; campaign 2, 10 μM): 10206 cpm and 12532 cpm and 11765 cpm | % Control ([4]; campaign 2, 100 μM): 973% | Mean (cpm) ([4]; campaign 2, 100 μM): 51673 cpm | [35S]-Sulfate (cpm) ([4]; campaign 2, 100 μM): 46568 cpm and 54125 cpm and 54327 cpm

OC[C@H]1O[C@@H](Oc2cc(O)cc(/C=C/c3ccc(O)cc3)c2)[C@H](O)[C@@H](O)[C@@H]1O [Polydatin]
effect on the neosynthesis of the total GAGs by the NHDFs (in words) ([1]; tested at 10 and 100 μM): overall inhibited | effect on the neosynthesis of the total GAGs by the NHEKs (in words) ([2]; tested at 10 and 100 μM): did not modulate | % Control ([2]; campaign 1, 10 μM): 102% | Mean (cpm) ([2]; campaign 1, 10 μM): 13202 cpm | [3H]-glucosamine (cpm) ([2]; campaign 1, 10 μM): 13405 cpm and 13192 cpm and 13010 cpm | % Control ([2]; campaign 1, 100 μM): 90% | Mean (cpm) ([2]; campaign 1, 100 μM): 11660 cpm | [3H]-glucosamine (cpm) ([2]; campaign 1, 100 μM): 12222 cpm and 11510 cpm and 11248 cpm | % Control ([3]; campaign 1, 10 μM): 96% | Mean (cpm) ([3]; campaign 1, 10 μM): 1573 cpm | [35S]-Sulfate (cpm) ([3]; campaign 1, 10 μM): 1523 cpm and 1479 cpm and 1718 cpm | % Control ([3]; campaign 1, 100 μM): 78% | Mean (cpm) ([3]; campaign 1, 100 μM): 1287 cpm | [35S]-Sulfate (cpm) ([3]; campaign 1, 100 μM): 1290 cpm and 1317 cpm and 1255 cpm | effect on the neosynthesis of the sulfated GAGs by the NHDFs (in words) ([3]; tested at 10 and 100 μM): overall inhibited | % Control ([4]; campaign 1, 10 μM): 100% | Mean (cpm) ([4]; campaign 1, 10 μM): 6760 cpm | [35S]-Sulfate (cpm) ([4]; campaign 1, 10 μM): 6316 cpm and 6800 cpm and 7164 cpm | % Control ([4]; campaign 1, 100 μM): 119% | Mean (cpm) ([4]; campaign 1, 100 μM): 8043 cpm | [35S]-Sulfate (cpm) ([4]; campaign 1, 100 μM): 7007 cpm and 8365 cpm and 8756 cpm | effect on the neosynthesis of the sulfated GAGs by the NHEKs (in words) ([4]; tested at 10 and 100 μM): did not modulate
